From PubChem BioAssay AID1259411 (Chemical Carcinogenesis Research Information System (CCRIS), 2018)
Activity calls are given as the source filed them. The rule behind the calls is not given here.

Tested on: rodent carcinogenicity bioassays, tumor incidence
Experiment: CCRIS carcinogenicity studies
Conditions: Dose: 0, Dose: 0
How it was run: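 Archive of carcinogenicity, mutagenicity, tumor promotion and tumor inhibition results drawn from journals, NCI reports and other sources, expert-reviewed; covers 1985-2011 and is no longer updated.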

OCC(CO)(CBr)CBr
carcinogen call (Species: GUPPIE, Strain/Sex: MALE, Route: AQUARIUM WATER, 24, 60, 150 MG/L FOR 9 MO THEN IN CLEAN WATER FOR 7 MO (STUDY DURATION: 16 MO), 24, 60, 150 MG/L FOR 9 MO THEN IN CLEAN WATER FOR 7 MO (STUDY DURATION: 16 MO), Tumor Site: Type of Lesion: LIVER: HEPATOCELLULAR ADENOMA OR CARCINOMA): active; positive | carcinogen call (Species: GUPPIE, Strain/Sex: MALE, Route: AQUARIUM WATER, 24, 60, 150 MG/L FOR 16 MO (STUDY DURATION: 16 MO), 24, 60, 150 MG/L FOR 16 MO (STUDY DURATION: 16 MO), Tumor Site: Type of Lesion: LIVER: HEPATOCELLULAR ADENOMA OR CARCINOMA): active; positive; due to mortality, exposure in 150 mg/l group terminated on day 443 | carcinogen call (Species: MEDAKA, Strain/Sex: FEMALE, Route: AQUARIUM WATER, 24, 60, 150 MG/L FOR 14 MO (STUDY DURATION: 14 MO), 24, 60, 150 MG/L FOR 14 MO (STUDY DURATION: 14 MO)): inactive; negative | carcinogen call (Species: MEDAKA, Strain/Sex: MALE, Route: AQUARIUM WATER, 24, 60, 150 MG/L FOR 9 MO THEN IN CLEAN WATER FOR 5 MO (STUDY DURATION: 14 MO), 24, 60, 150 MG/L FOR 9 MO THEN IN CLEAN WATER FOR 5 MO (STUDY DURATION: 14 MO), Tumor Site: Type of Lesion: LIVER: HEPATOCELLULAR ADENOMA OR CARCINOMA): active; positive | carcinogen call (Species: MEDAKA, Strain/Sex: MALE, Route: AQUARIUM WATER, 24, 60, 150 MG/L FOR 14 MO (STUDY DURATION: 14 MO), 24, 60, 150 MG/L FOR 14 MO (STUDY DURATION: 14 MO), Tumor Site: Type of Lesion: LIVER: HEPATOCELLULAR ADENOMA OR CARCINOMA): active; positive | carcinogen call (Species: MOUSE, Strain/Sex: B6C3F1/FEMALE, Route: ORAL, 312, 625, 1250 PPM IN DIET FOR 104-105 WK (STUDY DURATION: 106 WK), 312, 625, 1250 PPM IN DIET FOR 104-105 WK (STUDY DURATION: 106 WK), Tumor Site: Type of Lesion: HARDERIAN GLAND: ADENOMA, CARCINOMA, LUNG: ALVEOLAR/BRONCHIOLAR ADENOMA OR CARCINOMA, SKIN(SUBCUTANEOUS TISSUE): SARCOMA, Tumor Site: Type of Lesion: HARDERIAN GLAND: ADENOMA, CARCINOMA, LUNG: ALVEOLAR/BRONCHIOLAR ADENOMA OR CARCINOMA, SKIN(SUBCUTANEOUS TISSUE): SARCOMA): active; positive | carcinogen call (Species: MOUSE, Strain/Sex: B63CF1/MALE, Route: ORAL, 312, 625, 1250 PPM IN DIET FOR 104-105 WK (STUDY DURATION: 106 WK), 312, 625, 1250 PPM IN DIET FOR 104-105 WK (STUDY DURATION: 106 WK), Tumor Site: Type of Lesion: HARDERIAN GLAND: ADENOMA, ADENOMA OR CARCINOMA, LUNG: ALVEOLAR/BRONCHIOLAR ADENOMA, ALVEOLAR/BRONCHIOLAR CARCINOMA): active; positive | carcinogen call (Species: RAT, Strain/Sex: F344/FEMALE, Route: ORAL, 2500, 5000, 10000 PPM IN DIET FOR 104-105 WK (STUDY DURATION: 105 WK), 2500, 5000, 10000 PPM IN DIET FOR 104-105 WK (STUDY DURATION: 105 WK), Tumor Site: Type of Lesion: ESOPHAGUS: SQUAMOUS CELL PAPILLOMA, MAMMARY GLAND: FIBROADENOMA, ORAL CAVITY: SQUAMOUS CELL PAPILLOMA OR SQUAMOUS CELL C, Tumor Site: Type of Lesion: ESOPHAGUS: SQUAMOUS CELL PAPILLOMA, MAMMARY GLAND: FIBROADENOMA, ORAL CAVITY: SQUAMOUS CELL PAPILLOMA OR SQUAMOUS CELL C): active; positive | carcinogen call (Species: RAT, Strain/Sex: F344/MALE, Route: ORAL, 2500, 5000, 10000 PPM IN DIET FOR 104-105 WK (STUDY DURATION: 105 WK), 2500, 5000, 10000 PPM IN DIET FOR 104-105 WK (STUDY DURATION: 105 WK), Tumor Site: Type of Lesion: ESOPHAGUS: SQUAMOUS CELL PAPILLOMA, LARGE INTESTINE: ADENOMATOUS POLYP, MAMMARY GLAND: FIBROADENOMA, FIBROADENOMA OR ADE, Tumor Site: Type of Lesion: ESOPHAGUS: SQUAMOUS CELL PAPILLOMA, LARGE INTESTINE: ADENOMATOUS POLYP, MAMMARY GLAND: FIBROADENOMA, FIBROADENOMA OR ADE): active; positive | carcinogen call (Species: RAT, Strain/Sex: F344/MALE, Route: ORAL, 20000 PPM IN DIET FOR 3 MO FOLLOWED BY NORMAL DIET FOR 21 MO (STUDY DURATION: 2 YR), Tumor Site: Type of Lesion: LARGE INTESTINE: ADENOMATOUS POLYP, LUNG: ALVEOLAR/BRONCHIOLAR ADENOMA OR CARCINOMA, MAMMARY GLAND: FIBROADENOMA, ORAL C, Tumor Site: Type of Lesion: LARGE INTESTINE: ADENOMATOUS POLYP, LUNG: ALVEOLAR/BRONCHIOLAR ADENOMA OR CARCINOMA, MAMMARY GLAND: FIBROADENOMA, ORAL C): active; positive

C[C@@H]1O[C@@H](OC[C@H]2O[C@@H](Oc3c(-c4ccc(O)c(O)c4)oc4cc(OS(=O)(=O)O)cc(OS(=O)(=O)O)c4c3=O)[C@H](O)[C@@H](O)[C@@H]2O)[C@H](O)[C@H](O)[C@H]1O
carcinogen call (Species: RAT, Strain/Sex: SPRAGUE-DAWLEY/FEMALE, Route: GAVAGE, 10, 27, 71, 188, 500 MG/KG 3/WK FOR 2 YR (STUDY DURATION: 2 YR), 10, 27, 71, 188, 500 MG/KG 3/WK FOR 2 YR (STUDY DURATION: 2 YR)): inactive; negative | carcinogen call (Species: RAT, Strain/Sex: SPRAGUE-DAWLEY/MALE, Route: GAVAGE, 10, 27, 71, 188, 500 MG/KG 3/WK FOR 2 YR (STUDY DURATION: 2 YR), 10, 27, 71, 188, 500 MG/KG 3/WK FOR 2 YR (STUDY DURATION: 2 YR)): inactive; negative

O=[N+]([O-])c1ccc2c3c(cccc13)CC2
carcinogen call (Species: MOUSE, Strain/Sex: B6C3F1/FEMALE, Route: ORAL, 0.05, 0.12% TWA, IN DIET FOR 78 WK (STUDY DURATION: 96 WK), 0.05, 0.12% TWA, IN DIET FOR 78 WK (STUDY DURATION: 96 WK), Tumor Site: Type of Lesion: LIVER: HEPATOCELLULAR CARCINOMA, OVARIES: GRANULOSA CELL TUMOR, LUTEOMA OR TUBULAR CELL ADENOMA): active; positive | carcinogen call (Species: MOUSE, Strain/Sex: B6C3F1/MALE, Route: ORAL, 0.06, 0.12% TWA, IN DIET FOR 78 WK (STUDY DURATION: 96 WK), 0.06, 0.12% TWA, IN DIET FOR 78 WK (STUDY DURATION: 96 WK)): inactive; negative | carcinogen call (Species: RAT, Strain/Sex: F344/FEMALE, Route: ORAL, 0.12, 0.24% IN DIET FOR 78 WK (STUDY DURATION: 87-100 WK), 0.12, 0.24% IN DIET FOR 78 WK (STUDY DURATION: 87-100 WK), Tumor Site: Type of Lesion: LUNG: ALVEOLAR/BRONCHIOLAR ADENOMA OR ALVEOLAR/BRONCHIOLAR CARCINOMA, MAMMARY GLAND: ADENOCARCINOMA OR PAPILLARY CYSTADE): active; positive | carcinogen call (Species: RAT, Strain/Sex: F344/MALE, Route: ORAL, 0.12, 0.24% IN DIET FOR 70-78 WK (STUDY DURATION: 70-100 WK), 0.12, 0.24% IN DIET FOR 70-78 WK (STUDY DURATION: 70-100 WK), Tumor Site: Type of Lesion: LUNG: ALVEOLAR/BRONCHIOLAR ADENOMA OR ALVEOLAR/BRONCHIOLAR CARCINOMA, EAR (EAR CANAL OR SKIN OF EAR): SQUAMOUS CELL CARC): active; positive

Cc1nc(N)cc2[nH]c3ccccc3c12
carcinogen call (Species: MOUSE, Strain/Sex: CDF1/FEMALE, Route: ORAL, 200 PPM IN DIET FOR 621 D, Tumor Site: Type of Lesion: LIVER: HEPATOCELLULAR CARCINOMA): active; positive | carcinogen call (Species: MOUSE, Strain/Sex: DDY/FEMALE, Route: BLADDER IMPLANT, 5% IN PARAFFIN PELLET (STUDY DURATION: 40 WK), Tumor Site: Type of Lesion: URINARY BLADDER: TRANSITIONAL CELL CARCINOMA): active; positive | carcinogen call (Species: RAT, Strain/Sex: F344/FEMALE, Route: ORAL, 30, 100 PPM IN DIET FOR 112 WK (STUDY DURATION: 112 WK), 30, 100 PPM IN DIET FOR 112 WK (STUDY DURATION: 112 WK), Tumor Site: Type of Lesion: MAMMARY GLAND: FIBROADENOMA OR FIBROMA, HEMATOPOIETIC SYSTEM: MALIGNANT LYMPHOMA, CLITORAL GLAND: ADENOMA, Tumor Site: Type of Lesion: MAMMARY GLAND: FIBROADENOMA OR FIBROMA, HEMATOPOIETIC SYSTEM: MALIGNANT LYMPHOMA, CLITORAL GLAND: ADENOMA): active; positive | carcinogen call (Species: RAT, Strain/Sex: F344/MALE, Route: ORAL, 30, 100 PPM IN DIET FOR 112 WK (STUDY DURATION: 112 WK), 30, 100 PPM IN DIET FOR 112 WK (STUDY DURATION: 112 WK), Tumor Site: Type of Lesion: LIVER: HEPATOCELLULAR ADENOMA, URINARY BLADDER: TRANSITIONAL CELL PAPILLOMA, MAMMARY GLAND: FIBROADENOMA OR FIBROMA, Tumor Site: Type of Lesion: LIVER: HEPATOCELLULAR ADENOMA, URINARY BLADDER: TRANSITIONAL CELL PAPILLOMA, MAMMARY GLAND: FIBROADENOMA OR FIBROMA): active; positive
